Assay [1] concerns A2780. Kind of assay: Cytotoxicity against human A2780 cells. Type of assay: functional.
The subject of assay [2] is Saccharomyces cerevisiae. Nature of the assay: Antifungal activity against Saccharomyces cerevisiae RS321NYCp50 by microtiter yeast assay. Format: functional, organism-based.
For assay [3], the system named is Saccharomyces cerevisiae. Nature of the assay: Antifungal activity against Saccharomyces cerevisiae RS321NpRAD52 by microtiter yeast assay. Format: functional, organism-based.

Molecule `CN1CCc2c([nH]c3ccccc23)C1` had an Activity in assay [1] of 38%.
For `CN(C=O)CCc1ccc(O)cc1`, the Activity result in assay [2] and in assay [3] was “Dose-dependent effect” in each case.
As for `CN(C)CCc1ccc(O)cc1` [HORDENINE], the Activity in assay [1] came out at 39%.
